Assay results reported in patent US11059801B2, “Methods to induce targeted protein degradation through bifunctional molecules” (Dana-Farber Cancer Institute, Inc., priority 2014, dated 2021).
Like-named read-outs stand apart in the source and are kept apart here. One block for each molecule: values may come before it.

Tests used:
[1] = biological target: fusion of mutant FKBP12 to nanoluciferase (Homo sapiens (Human), UniProt P62942+Q96SW2, F36V); experiment: FKBP Dual Luciferase Assay (mutant FKBP12, 36V); format: cell-based; conditions: for Dmax: read-out: Max Degradation (dual luciferase, %) FKBP 36V;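 as to all read-outs here: cells exposed to rising degrader concentrations, FKBP12 fusion level read as NLuc/FLuc signal ratio, lower ratio means more degradation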
Description: The cells were treated with increasing concentrations of various dFKBPs for 4 hours. The amount of NLuc and FLuc was measured, and the abundance of the FKBP12-HA-NLuc was quantified by calculating the signal ratio of NLuc/FLuc.

[2] = biological target: IKZF1 adjoined to nanoluciferase (Nluc) (Homo sapiens (Human), UniProt Q13422); experiment: IKZF1 Dual Luciferase Assay; format: cell-based; conditions: 4 hours; read-out: Nluc/Fluc IKZF1 IC50
Description: Transduced cells were selected with puromycin at 2 μg/mL and expanded. […] Cells were incubated with compound for 4 hours at 37° C., 5% CO2 and then allowed to cool to room temperature. To each plate was added 25 μL of Fluc buffer (200 mM Tris, 15 mM MgSO4, 100 uM EDTA, 1 mM DTT, 1 mM ATP, 200 uM Coenzyme A, 400 uM D-Luciferin, 0.1% Trition X-100).

[3] = biological target: CRBN-DDB1/BRD4 (Homo sapiens (Human), UniProt O60885+Q96SW2); experiment: CRBN-DDB1/BRD4 Dimerization Assay; format: binding; conditions: for Dimer Amplitude / Dimer Mean: Gaussian fit of dimerization signal; for Dimer SD: Gaussian fit parameter of dimerization signal;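 as to all read-outs here: AlphaScreen proximity signal between GST-tagged BRD4 and CRBN-DDB1 with glutathione donor and nickel chelate acceptor beads, read after 1 hr compound incubation at room temperature, values from Gaussian curve fit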
[4] = FKBP 36V, 4 hours, read-out: DC50 (nM) FKBP 36V

- DC50 [2]: > 50000 nM
SMILES: O=C1CCC(N2C(=O)c3cccc(F)c3C2=O)C(=O)N1 [Compound D-14, 2-(2,6-dioxopiperidin-3-yl)-4-fluoroisoindoline-1,3-dione]

- DC50 [2]: 140 nM
SMILES: CCN(CC)c1cccc2c1C(=O)N(C1CCC(=O)NC1=O)C2=O [Compound D-21, 4-(diethylamino)-2-(2,6-dioxopiperidin-3-yl)isoindoline-1,3-dione]

- DC50 [2]: 444 nM
SMILES: CC(=O)Nc1cccc2c1C(=O)N(C1CCC(=O)NC1=O)C2=O [Compound D-3, N-(2-(2,6-dioxopiperidin-3-yl)-1,3-dioxoisoindolin-4-yl)acetamide]

- DC50 [2]: 23.9 nM
SMILES: O=C1CCC(N2C(=O)c3cccc(NCc4ccccc4)c3C2=O)C(=O)N1 [Compound D-16, 4-(benzylamino)-2-(2,6-dioxopiperidin-3-yl)isoindoline-1,3-dione]

- DC50 [2]: > 50000 nM
SMILES: O=C1CCC(N2C(=O)c3ccc(C(=O)O)cc3C2=O)C(=O)N1 [Compound D-13, 2-(2,6-dioxopiperidin-3-yl)-1,3-dioxoisoindoline-5-carboxylic acid]

- DC50 [2]: > 50000 nM
SMILES: O=C1CCC(N2C(=O)c3ccc(C(=O)NCc4ccccc4)cc3C2=O)C(=O)N1 [Compound D-15, N-benzyl-2-(2,6-dioxopiperidin-3-yl)-1,3-dioxoisoindoline-5-carboxamide]

- DC50 [2]: > 50000 nM
SMILES: CCN(CC)c1ccc2c(c1)C(=O)N(C1CCC(=O)NC1=O)C2=O [Compound D-27, 5-(diethylamino)-2-(2,6-dioxopiperidin-3-yl)isoindoline-1,3-dione]

- DC50 [2]: > 50000 nM
SMILES: O=C1CCC(N2C(=O)c3cccc([N+](=O)[O-])c3C2=O)C(=O)N1 [Compound D-10, 2-(2,6-dioxopiperidin-3-yl)-4-nitroisoindoline-1,3-dione]

- DC50 [2]: > 50000 nM
SMILES: O=C1CCC(N2C(=O)c3ccc(F)cc3C2=O)C(=O)N1 [Compound D-24, 2-(2,6-dioxopiperidin-3-yl)-5-fluoroisoindoline-1,3-dione]

- DC50 [2]: > 50000 nM
SMILES: O=C1CCC(N2C(=O)c3ccc(NCc4ccccc4)cc3C2=O)C(=O)N1 [Compound D-25, 5-(benzylamino)-2-(2,6-dioxopiperidin-3-yl)isoindoline-1,3-dione]

- DC50 [2]: 534 nM
SMILES: O=C1CCC(N2C(=O)c3cccc(CNC(=O)C4CC4)c3C2=O)C(=O)N1 [Compound D-22, N-((2-(2,6-dioxopiperidin-3-yl)-1,3-dioxoisoindolin-4-yl)methyl)cyclopropanecarboxamide]

- DC50 [2]: 7610 nM
SMILES: Cc1nc2ccccc2c(=O)n1C1CCC(=O)NC1=O [Compound D-9, 3-(2-methyl-4-oxoquinazolin-3(4H)-yl)piperidine-2,6-dione]

- DC50 [2]: > 50000 nM
SMILES: CC(C)Nc1ccc2c(c1)C(=O)N(C1CCC(=O)NC1=O)C2=O [Compound D-26, 2-(2,6-dioxopiperidin-3-yl)-5-(isopropylamino)isoindoline-1,3-dione]

- DC50 [2]: > 50000 nM
SMILES: Cc1nc2ccccc2c(=O)n1C1CC(=O)NC1=O [Compound D-11, 3-(2-methyl-4-oxoquinazolin-3(4H)-yl)pyrrolidine-2,5-dione]

- DC50 [2]: > 50000 nM
SMILES: O=C1CCC(N2C(=O)c3cccc(O)c3C2=O)C(=O)N1 [Compound D-1, 2-(2,6-dioxopiperidin-3-yl)-4-hydroxyisoindoline-1,3-dione]

- DC50 [2]: > 50000 nM
SMILES: CC(=O)Nc1ccc2c(c1)C(=O)N(C1CCC(=O)NC1=O)C2=O [Compound D-5, N-(2-(2,6-dioxopiperidin-3-yl)-1,3-dioxoisoindolin-5-yl)acetamide]

- DC50 [2]: 1020 nM
SMILES: CC(=O)NCc1cccc2c1C(=O)N(C1CCC(=O)NC1=O)C2=O [Compound D-23, N-((2-(2,6-dioxopiperidin-3-yl)-1,3-dioxoisoindolin-4-yl)methyl)acetamide]

The next lines start with the molecule.

SMILES: CC[C@H](C(=O)N1CCCC[C@H]1C(=O)O[C@H](CCc1ccc(OC)c(OC)c1)c1cccc(OCC(=O)NCCOCCOc2cccc3c2C(=O)N(C2CCC(=O)NC2=O)C3=O)c1)c1cc(OC)c(OC)c(OC)c1 (stereo partly shown) [dFKBP*-19]
- DC50 [1, 4]: 1.7 nM
- Dmax ([1]; FKBP 36V, 4 hours): 94%

SMILES: O=C1CCC(N2C(=O)c3ccc([N+](=O)[O-])cc3C2=O)C(=O)N1 [Compound D-2, 2-(2,6-dioxopiperidin-3-yl)-5-nitroisoindoline-1,3-dione]
- DC50 [2]: > 50000 nM

SMILES: Cc1sc2c(c1C)C(c1ccc(Cl)cc1)=N[C@@H](CC(=O)NCCCOCCOCCOCCCNC(=O)COc1cccc3c1C(=O)N(C1CCC(=O)NC1=O)C3=O)c1nnc(C)n1-2 (stereo partly shown) [dBET9]
- Dimer Amplitude [3]: 16889
- Dimer Mean [3]: −7.496
- Dimer SD [3]: 0.5198

SMILES: CC[C@@H]1C(=O)N(C)c2cnc(Nc3ccc(C(=O)NCCCCNC(=O)COc4cccc5c4C(=O)N(C4CCC(=O)NC4=O)C5=O)cc3OC)nc2N1C1CCCC1 (stereo partly shown) [dBET2]
- Dimer Amplitude [3]: 20549
- Dimer Mean [3]: −7.428
- Dimer SD [3]: 0.7005

SMILES: CC[C@H](C(=O)N1CCCC[C@H]1C(=O)OC(CCc1ccc(OC)c(OC)c1)c1cccc(OCC(=O)NCCCCCCCC(=O)Nc2cccc3c2C(=O)N(C2CCC(=O)NC2=O)C3=O)c1)c1cc(OC)c(OC)c(OC)c1 (stereo partly shown) [dFKBP*-20]
- DC50 [1, 4]: 17 nM
- Dmax ([1]; FKBP 36V, 4 hours): 75.7%

SMILES: CC[C@H](C(=O)N1CCCC[C@H]1C(=O)OC(CCc1ccc(OC)c(OC)c1)c1cccc(OCC(=O)NCCCCCCCCCCOc2cccc3c2C(=O)N(C2CCC(=O)NC2=O)C3=O)c1)c1cc(OC)c(OC)c(OC)c1 (stereo partly shown) [dFKBP*-14]
- DC50 [1, 4]: 57 nM
- Dmax ([1]; FKBP 36V, 4 hours): 85%

SMILES: CC[C@H](C(=O)N1CCCC[C@H]1C(=O)OC(CCc1ccc(OC)c(OC)c1)c1cccc(OCC(=O)NCCCCCCOc2cccc3c2C(=O)N(C2CCC(=O)NC2=O)C3=O)c1)c1cc(OC)c(OC)c(OC)c1 (stereo partly shown) [dFKBP*-13]
- DC50 [1, 4]: 1.2 nM
- Dmax ([1]; FKBP 36V, 4 hours): 83%

SMILES: Cc1sc2c(c1C)C(c1ccc(Cl)cc1)=N[C@@H](CC(=O)NCCCCCCCCOc1cccc3c1C(=O)N(C1CCC(=O)NC1=O)C3=O)c1nnc(C)n1-2 (stereo partly shown) [dBET21]
- Dimer Amplitude [3]: 758.9
- Dimer Mean [3]: −6.306
- Dimer SD [3]: 1.327

SMILES: CC[C@H](C(=O)N1CCCC[C@H]1C(=O)O[C@H](CCc1ccc(OC)c(OC)c1)c1cccc(OCC(=O)NCCCCCCCCNC(=O)COc2cccc3c2C(=O)N(C2CCC(=O)NC2=O)C3=O)c1)c1cc(OC)c(OC)c(OC)c1 (stereo partly shown) [c1FKBP*-9]
- DC50 ([1]; read-out: DC50 (nM) FKBP 36V, 4 hours): 3.9 nM

SMILES: CC[C@H](C(=O)N1CCCC[C@H]1C(=O)O[C@H](CCc1ccc(OC)c(OC)c1)c1cccc(OCC(=O)NCCOCCOCCOc2cccc3c2C(=O)N(C2CCC(=O)NC2=O)C3=O)c1)c1cc(OC)c(OC)c(OC)c1 (stereo partly shown) [dFKBP*-15]
- DC50 [1, 4]: 28 nM
- Dmax ([1]; FKBP 36V, 4 hours): 66%

SMILES: CC[C@H](C(=O)N1CCCC[C@H]1C(=O)OC(CCc1ccc(OC)c(OC)c1)c1cccc(OCC(=O)NCc2ccc(CNC(=O)COc3cccc4c3C(=O)N(C3CCC(=O)NC3=O)C4=O)cc2)c1)c1cc(OC)c(OC)c(OC)c1 (stereo partly shown) [dFKBP*-21]
- DC50 [1, 4]: 15 nM
- Dmax ([1]; FKBP 36V, 4 hours): 91%

SMILES: CC[C@H](C(=O)N1CCCC[C@H]1C(=O)OC(CCc1ccc(OC)c(OC)c1)c1cccc(OCC(=O)NCCCCC(=O)Nc2cccc3c2C(=O)N(C2CCC(=O)NC2=O)C3=O)c1)c1cc(OC)c(OC)c(OC)c1 (stereo partly shown) [dFKBP*-16]
- DC50 [1, 4]: 99 nM
- Dmax ([1]; FKBP 36V, 4 hours): 38%

SMILES: CC[C@H](C(=O)N1CCCC[C@H]1C(=O)OC(CCc1ccc(OC)c(OC)c1)c1cccc(OCC(=O)NCCCCOc2cccc3c2C(=O)N(C2CCC(=O)NC2=O)C3=O)c1)c1cc(OC)c(OC)c(OC)c1 (stereo partly shown) [dFKBP*-18]
- DC50 [1, 4]: 6.4 nM
- Dmax ([1]; FKBP 36V, 4 hours): 80%

SMILES: CC[C@H](C(=O)N1CCCC[C@H]1C(=O)OC(CCc1ccc(OC)c(OC)c1)c1cccc(OCC(=O)NCCCOCCCNC(=O)COc2cccc3c2C(=O)N(C2CCC(=O)NC2=O)C3=O)c1)c1cc(OC)c(OC)c(OC)c1 (stereo partly shown) [dFKBP*-17]
- DC50 [1, 4]: 69 nM
- Dmax ([1]; FKBP 36V, 4 hours): 64%
